From article PMC10298926, “Biophysical Characterization of the Binding Mechanism between the MATH Domain of SPOP and Its Physiological Partners” (International Journal of Molecular Sciences, 2023)
Where a SMILES comes first, the peptide text is derived from it. Where no end group is shown, it is not given here. The star is where a group is joined. Dansyl = CN(C)c1cccc2c(S(=O)(=O)*)cccc12

Columns and labels:
SPOP MATH WT [1] = target: T1, SPOP MATH WT (Homo sapiens, UniProt O43791); assay: Stopped-flow pseudo-first-order binding kinetics; conditions: 298 K; for kon: stopped-flow, 2 µM MATH domain, dansylated peptide 2 to 10 µM (Puc, MacroH2A) or 2 to 40 µM (PTEN), 50 mM sodium-HEPES, pH 7.2 (for ionic strength series), five traces averaged, slope of kobs vs peptide
Procedure: (§1) To infer the mechanism of recognition of SPOP MATH, we resorted to performing time-resolved kinetic experiments. SPOP MATH was rapidly mixed with increasing concentrations of dansylated peptides (from 2 to 10 µM for Puc and MacroH2A, and from 2 to 40 µM for PTEN) in a stopped-flow apparatus at 298 K. The binding traces obtained by monitoring the time-resolved fluorescence were satisfactorily fitted to a single exponential equation, allowing calculating the observed rate constants kobs at different peptide concentrations. We then plotted the kobs values over the concentration of dansylated peptide and fitted the data to a simple linear function equation: kobs=kon Peptide+koff where kobs is the observed rate constant; kon and koff are the microscopic association and dissociation rate constants, respectively (Figure 2). The slope and y-axis intercept represent the microscopic association and dissociation rate constant, respectively. To minimize the error associated with the indirect measurement of the dissociation rate constant, we carried out displacement experiments to determine the koff values. The displacement experiments were designed by mixing the preformed complex SPOP MATH-dansylated peptides with a high excess of nondansylated peptide, as described in the Section 4. […] On the basis of these observations, it is possible to conclude that, in the case of binding to MacroH2A and PTEN, there is the presence of an additional step, which escapes detection by stopped-flow experiments and is likely to be negligible in the case of Puc. […] We note that such a case closely resembles the presence of a so-called burst phase, which is frequently observed in protein-folding studies.
Binding kinetic experiments were performed on an Applied Photophysics DX-17MV stopped-flow apparatus (Applied Photophysics, Leatherhead, UK). Pseudo-first-order binding experiments were performed by mixing a constant concentration (2 μM) of MATH domain with increasing dansylated peptides concentrations, from 2 to 10 μM of Puc and MacroH2A, and 2 to 40 µM of PTEN. The samples were excited at 280 nm, and the emission fluorescence was recorded by using a bandpass 320 nm cutoff filter. The experiments were performed at 298 K. For ionic strength dependence with Puc and MacroH2A, the buffers used were 50 mM sodium-HEPES, pH 7.2, supplemented with 50 mM, 100 mM, 200 mM, or 500 mM of sodium chloride (NaCl). For the PTEN binding salt dependence experiments, lower concentrations of salt were added for the previous buffer list mentioned (10 mM, 25 mM, and 50 mM of sodium chloride). For each acquisition, five traces were collected, averaged, and satisfactorily fitted to a single exponential equation.

SPOP MATH WT [2] = target: T1, SPOP MATH WT; assay: Stopped-flow displacement; format: binding; conditions: preincubated complex (both 8 µM) mixed with 50 μM nondansylated peptide, 298 K, average of five single traces
Procedure: as §1
Target sequence in this assay (O43791 1-182): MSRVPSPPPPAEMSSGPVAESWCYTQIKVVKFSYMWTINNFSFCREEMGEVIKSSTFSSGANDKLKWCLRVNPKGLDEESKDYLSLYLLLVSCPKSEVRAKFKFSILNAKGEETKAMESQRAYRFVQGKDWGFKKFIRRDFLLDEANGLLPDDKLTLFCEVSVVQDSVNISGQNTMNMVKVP
Microscopic dissociation rate constants (koff) were directly measured by performing displacement experiments on an Applied Photophysics DX-17MV stopped-flow apparatus (Applied Photophysics). […] The samples were excited at 280 nm and fluorescence emission was collected by using a 330 ± 30 nm bandpass filter. […] The observed rate constants were calculated from the average of five single traces. […]

SPOP MATH WT [3] = target: T1, SPOP MATH WT; assay: Equilibrium binding, FRET (Trp to dansyl), fluorescence titration; conditions: read-out: Equilibrium KD; dansylated peptide 0 to 40 µM; constant SPOP MATH WT (2 µM in methods, 1 µM in results); excitation 280 nm, emission 300-400 nm; 298 K; hyperbolic fit
Source text: The MATH domain of SPOP exerts its functions by specifically recognizing different substrates and, therefore, acting as an adaptor module between SPOP and its physiological ligands. In an effort to provide a complete characterization of SPOP MATH binding mechanisms, we investigated the recognition of three peptides mimicking a specific region of the substrates Puc (region 96–105), MacroH2A (region 166–179), and PTEN (region 354–368). […] Moreover, the three-dimensional structure of SPOP MATH in complexes with each of the peptides has been previously reported (3HQH, 3HQL, and 4OV1 PDB entries, respectively). Similar to previous work on other protein–protein recognition modules, we employed peptides carrying a covalently attached N-terminal dansyl fluorophore. Binding was then followed by measuring the FRET (Forster resonance energy transfer) between the three tryptophan residues of the SPOP MATH domain (donor) and the dansyl group of the peptides (acceptor).
To address the equilibrium binding affinity of SPOP MATH and its substrates, a fixed concentration of the protein (1 µM) was challenged with increasing peptide concentrations. In all cases, the fluorescence-monitored transition returned a hyperbolic behavior as described in the Section 4, which allowed estimating a dissociation constant of 1.4 ± 0.4 µM, 1.6 ± 0.2 µM, and 5.5 ± 0.5 µM for Puc, MacroH2A, and PTEN, respectively (Figure 2). These values appear partly consistent with what was previously reported by Zhuang et al. by using surface plasmon resonance. […]
Equilibrium binding experiments were performed on a Fluoromax-4 single-photon-counting spectrofluorometer (Jobin-Yvon, Newark, NJ, USA). The SPOP MATH domain was excited at 280 nm and emission spectra were recorded between 300 and 400 nm, at increasing dansylated peptide concentrations. […]

[4] = target: engineered MATH domain of SPOP (Speckle-type POZ protein), residues 1-182, cysteine residues substituted to serine (UniProt O43791); assay: stopped-flow fluorescence binding kinetics; pseudo-first-order; 2 µM MATH mixed with dansylated peptide, 2 to 10 µM Puc and MacroH2A, 2 to 40 µM PTEN; excitation 280 nm; 298 K; kobs against peptide concentration fitted to a line, kon from the slope
[5] = target: engineered MATH domain of SPOP (Speckle-type POZ protein), residues 1-182, cysteine residues substituted to serine (UniProt O43791); assay: other fluorescence titration; equilibrium; FRET from the tryptophans of SPOP MATH (excited at 280 nm, emission 300-400 nm) to the dansyl of the peptide; MATH at constant concentration (2 µM in the methods, 1 µM in the results), dansylated peptide 0 to 40 µM; 298 K; hyperbolic fit
[6] = target: engineered MATH domain of SPOP (Speckle-type POZ protein), residues 1-182, cysteine residues substituted to serine (UniProt O43791); assay: stopped-flow fluorescence displacement; preincubated complex of MATH domain and dansylated peptide (both 8 µM) mixed with an excess of nondansylated peptide (50 µM); 298 K; same buffer as the binding experiments; single exponential decay gives koff
[7] = target: engineered MATH domain of SPOP (Speckle-type POZ protein), residues 1-182, cysteine residues substituted to serine (UniProt O43791); assay: stopped-flow fluorescence binding kinetics + other: stopped-flow fluorescence displacement; KD calculated by combining kon of the pseudo-first-order plots with koff of the displacement experiments; 298 K

## CC(C)[C@H](NC(=O)[C@H](CO)NC(=O)[C@@H](NC(=O)[C@H](CO)NC(=O)[C@H](CO)NC(=O)[C@H](CO)NC(=O)[C@H](C)NC(=O)[C@H](CCC(=O)O)NC(=O)[C@@H]1CCCN1C(=O)[C@H](CC(N)=O)NC(=O)[C@H](CO)NC(=O)[C@@H]1CCCN1S(=O)(=O)c1cccc2c(N(C)C)cccc12)[C@@H](C)O)C(=O)N[C@H](C(=O)N1CCC[C@H]1C(=O)N[C@@H](CC(=O)O)C(=O)O)[C@@H](C)O [PTEN] (HELM PEPTIDE1{[CN(C)c1cccc2c(S(=O)(=O)[*:2])cccc12].P.S.N.P.E.A.S.S.S.T.S.V.T.P.D}$$$$V2.0)
SPOP MATH WT [1]; read-out: Kinetics KD, WT, from kon (pseudo-first-order) and koff (displacement)
  Kd: 20.8 ± 0.4 µM
SPOP MATH WT [1]
  kon: 5.5e+06 ± 500000 M⁻¹ s⁻¹
SPOP MATH WT [2]
  koff: 113 ± 1 s⁻¹
SPOP MATH WT [3]
  Kd: 4 ± 1 µM

## C[C@H](NC(=O)[C@H](C)NC(=O)[C@H](CCCCN)NS(=O)(=O)c1cccc2c(N(C)C)cccc12)C(=O)N[C@@H](CO)C(=O)N[C@@H](C)C(=O)N[C@@H](CC(=O)O)C(=O)N[C@@H](CO)C(=O)N[C@H](C(=O)N[C@H](C(=O)N[C@@H](CCC(=O)O)C(=O)NCC(=O)N[C@H](C(=O)N1CCC[C@H]1C(=O)N[C@@H](C)C(=O)N[C@@H](CC(=O)O)C(=O)O)[C@@H](C)O)[C@@H](C)O)[C@@H](C)O [MacroH2A] (HELM PEPTIDE1{[CN(C)c1cccc2c(S(=O)(=O)[*:2])cccc12].K.A.A.S.A.D.S.T.T.E.G.T.P.A.D}$$$$V2.0)
SPOP MATH WT [1]
  kon: 3e+06 ± 2e+06 M⁻¹ s⁻¹
SPOP MATH WT [2]
  koff: 21 ± 2 s⁻¹
SPOP MATH WT [3]
  Kd: 1.6 ± 0.2 µM

## Dansyl-PSNPEASSSTSVTPD [dansylated peptide mimicking PTEN (region 354-368)]
[4]
  kon: 5.5e+06 M⁻¹ s⁻¹
[5]
  Kd: 5.5 µM
[6]
  koff: 113 s⁻¹

## Dansyl-KAASADSTTEGTPAD [dansylated peptide mimicking MacroH2A (region 166-179)]
[4]
  kon: 3e+06 M⁻¹ s⁻¹
[6]
  koff: 21 s⁻¹
[7]
  Kd: 7.8 µM
